Data as given in patent US20110039779A1, “IGF-1R BINDING PROTEINS AND ANTAGONISTS” (priority 2007, published 2011).
Where a SMILES comes first, the peptide text is derived from it.

What was measured:
HIGF-1R = biological target: T1, HIGF-1R (Homo sapiens, UniProt P08069); assay: IGF-1R affinity, scintillation proximity assay (SPA assay), 125I-IGF1 displacement; type: binding
T1 construct: HIGF-1R was purified from a cell culture of BHK cells stably transfected with IGF-1R cDNA; made in house; host or cells: BHK cells stably transfected with IGF-1R cDNA
T1 sequence (P08069 31-736 limits assumed): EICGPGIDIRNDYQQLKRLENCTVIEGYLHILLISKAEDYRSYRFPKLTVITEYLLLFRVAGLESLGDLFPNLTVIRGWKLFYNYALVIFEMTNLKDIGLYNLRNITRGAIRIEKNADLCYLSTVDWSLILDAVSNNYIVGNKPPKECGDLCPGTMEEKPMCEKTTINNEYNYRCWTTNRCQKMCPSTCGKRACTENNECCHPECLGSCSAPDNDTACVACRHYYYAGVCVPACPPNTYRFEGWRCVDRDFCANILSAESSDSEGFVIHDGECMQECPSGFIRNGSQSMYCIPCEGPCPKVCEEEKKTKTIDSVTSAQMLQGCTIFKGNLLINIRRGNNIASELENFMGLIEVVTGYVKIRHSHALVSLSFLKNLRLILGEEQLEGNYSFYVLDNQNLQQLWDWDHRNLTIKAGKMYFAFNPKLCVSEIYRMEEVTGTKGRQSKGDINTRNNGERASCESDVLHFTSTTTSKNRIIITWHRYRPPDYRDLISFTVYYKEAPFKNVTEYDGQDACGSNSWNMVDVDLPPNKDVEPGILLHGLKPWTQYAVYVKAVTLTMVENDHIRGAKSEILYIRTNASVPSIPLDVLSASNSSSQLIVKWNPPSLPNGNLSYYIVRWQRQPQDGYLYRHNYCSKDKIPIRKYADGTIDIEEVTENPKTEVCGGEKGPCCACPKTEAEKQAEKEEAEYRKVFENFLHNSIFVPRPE
T1 sequence (P08069 741-1367 limits assumed): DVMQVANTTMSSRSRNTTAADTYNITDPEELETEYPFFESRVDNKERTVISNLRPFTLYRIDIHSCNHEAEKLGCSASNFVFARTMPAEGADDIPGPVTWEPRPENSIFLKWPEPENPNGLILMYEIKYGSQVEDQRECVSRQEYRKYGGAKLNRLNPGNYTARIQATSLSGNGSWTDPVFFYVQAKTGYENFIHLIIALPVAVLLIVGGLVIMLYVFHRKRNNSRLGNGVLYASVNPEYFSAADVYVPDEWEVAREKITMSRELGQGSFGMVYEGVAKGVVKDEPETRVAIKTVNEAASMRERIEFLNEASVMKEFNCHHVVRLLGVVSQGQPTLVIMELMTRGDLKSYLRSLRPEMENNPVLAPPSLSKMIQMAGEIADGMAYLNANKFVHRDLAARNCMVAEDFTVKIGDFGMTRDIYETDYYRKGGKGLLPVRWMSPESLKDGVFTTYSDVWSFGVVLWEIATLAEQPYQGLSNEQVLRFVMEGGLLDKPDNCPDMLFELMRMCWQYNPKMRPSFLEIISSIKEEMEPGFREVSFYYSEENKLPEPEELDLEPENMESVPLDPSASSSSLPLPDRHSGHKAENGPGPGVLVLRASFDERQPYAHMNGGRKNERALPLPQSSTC
From the text: In certain cases, a scintillation proximity assay (SPA assay) was used to determine IGF-1R affinity.

[1] = biological target: human insulin receptor (HIR) (Homo sapiens, UniProt P06213); assay: human insulin receptor (HIR) affinity; type: binding; settings: printed in brackets under the HIR affinity, not explained
Sequence of human insulin receptor (HIR) (P06213 28-758 limits assumed): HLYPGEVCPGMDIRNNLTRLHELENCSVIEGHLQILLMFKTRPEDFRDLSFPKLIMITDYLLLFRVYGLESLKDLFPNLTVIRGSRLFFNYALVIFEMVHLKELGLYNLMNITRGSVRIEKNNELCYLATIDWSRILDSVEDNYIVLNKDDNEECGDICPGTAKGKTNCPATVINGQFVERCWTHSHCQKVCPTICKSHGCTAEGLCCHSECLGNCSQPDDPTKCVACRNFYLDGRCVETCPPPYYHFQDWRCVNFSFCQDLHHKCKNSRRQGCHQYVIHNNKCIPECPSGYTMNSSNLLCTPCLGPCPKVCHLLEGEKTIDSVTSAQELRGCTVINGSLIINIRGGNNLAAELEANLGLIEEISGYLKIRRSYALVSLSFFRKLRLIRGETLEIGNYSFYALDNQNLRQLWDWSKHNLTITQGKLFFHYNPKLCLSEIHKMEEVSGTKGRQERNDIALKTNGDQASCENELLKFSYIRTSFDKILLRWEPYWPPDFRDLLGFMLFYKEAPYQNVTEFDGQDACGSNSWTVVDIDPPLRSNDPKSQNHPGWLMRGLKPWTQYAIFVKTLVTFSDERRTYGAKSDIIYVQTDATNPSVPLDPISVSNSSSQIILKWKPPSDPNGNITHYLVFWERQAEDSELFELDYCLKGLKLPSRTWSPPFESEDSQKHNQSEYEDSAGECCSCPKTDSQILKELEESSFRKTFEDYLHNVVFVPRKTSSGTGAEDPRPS
Sequence of human insulin receptor (HIR) (P06213 763-1382 limits assumed): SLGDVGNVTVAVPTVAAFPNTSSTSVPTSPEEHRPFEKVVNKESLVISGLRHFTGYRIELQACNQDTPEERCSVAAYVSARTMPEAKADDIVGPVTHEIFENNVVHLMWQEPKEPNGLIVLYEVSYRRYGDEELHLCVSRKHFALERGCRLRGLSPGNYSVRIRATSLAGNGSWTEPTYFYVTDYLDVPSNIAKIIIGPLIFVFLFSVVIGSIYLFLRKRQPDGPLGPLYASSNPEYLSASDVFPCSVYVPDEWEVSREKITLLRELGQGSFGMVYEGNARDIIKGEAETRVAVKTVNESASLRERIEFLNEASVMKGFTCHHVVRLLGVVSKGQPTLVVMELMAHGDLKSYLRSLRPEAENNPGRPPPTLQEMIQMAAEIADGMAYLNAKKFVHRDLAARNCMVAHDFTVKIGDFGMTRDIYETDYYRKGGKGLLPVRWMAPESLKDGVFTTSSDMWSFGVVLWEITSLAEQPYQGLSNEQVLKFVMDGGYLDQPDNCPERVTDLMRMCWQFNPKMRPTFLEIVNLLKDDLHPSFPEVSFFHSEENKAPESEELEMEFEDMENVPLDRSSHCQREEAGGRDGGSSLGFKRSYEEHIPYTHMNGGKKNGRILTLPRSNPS
Protocol: IGF-1R affinity studies were generally performed as follows. […] HIGF-1R was purified from a cell culture of BHK cells stably transfected with IGF-1R cDNA. The day before harvest cells were moved to serum free conditions and before harvest the cells were rinsed with and ice cold PBS solution. The cells were solubilized in cold lysis buffer (4 ml lysis buffer/1×10^8 cells); vortexed vigorously to lysis in lysis buffer (50 mM Hepes (pH 8.0); 150 mM NaCl; 1% Triton X-100; 2 mM EDTA; 10 μg/mlaprotinin; 0.5 mM PEFABLOC (Roche)); and the lysate centrifuged at 4° C., 20000 rpm, for 15 minutes. The HIGF-1R portion was absorbed to WGA-agarose beads and subjected to chromatography purification (Pharmacia biotech No 17-0760-01) (column washed with 20× column volumes wash buffer −50 mM Hepes (pH 8.0); 150 mM NaCl; 0.1% Triton X-100; 0.5 mM PEFABLOC (Roche)). The HIGF-1R portion was then eluted with 0.5 M n-Acetyl Glycosamine (NAG), 10% Glycerol in elution buffer (50 mM Hepes (pH 8.0); 150 mM NaCl; 0.1% Triton X-100; 0.5 mM PEFABLOC (Roche); 0.5 M n-acetyl glucosamine; 10% glycerol). […] After equilibration for 2 days at 4° C., each sample (200 μl) typically was precipitated by addition of 400 μl 25% PEG 6000, centrifuged, washed with 1 ml 15% PEG 6000, and counted in a gamma-counter. In some cases, human insulin receptor (HIR) affinity for select test peptides was similarly measured.

SW480 cells = type: cell-based
Protocol: For cell growth/density studies, a mitochondrial activity assay was used, as exemplified by the following. Cells (SW480, MCF-7S8) were propagated in complete medium (DME: F12, 10% FCS (SW 480) or 5% FCS (MCF-7S8, P/S)), trypsinized, and seeded in 96 well plates as 10,000 cells/well in medium with 0.5% FCS. All wells in the periphery were omitted and only filled with medium. […] All treatments are made in triplicates. […] Treatment was continued for 48 hours (SW480 cells) or 72 hours (MCF-7S8 cells) before quantification of the cell density. Media was exchanged each day. Media and peptides were diluted in DMSO. When measuring cell density, the volume of each well was adjusted to […] Pre-diluted WST-1 (1 ml+1.5 ml DME:F12) was added as 25 μL to each well including background samples. Three wells with media only served as background controls. The cells were incubated for 90 min protected against light in an incubator.

[2] = tested on: SGBS adipocytes transfected with HIR-encoding DNA; assay: 3H glucose incorporation (insulin agonist activity) in SGBS adipocytes; type: cell-based
Protocol: Insulin increases uptake of ^3H glucose into adipocytes and its conversion into lipid. Incorporation of ^3H into the lipid phase was determined by partitioning of lipid phase into a scintillant mixture, which excludes water-soluble ^3H products. […] The results are expressed as increase relative to full insulin response.

insulin receptor/IGF-1R = assay: tyrosine phosphorylation of insulin receptor/IGF-1R in L6-hIR cells (Western blot); type: cell-based
MAPK42 = assay: downstream signaling in L6 cells: MAPK42; type: cell-based; settings: 3 nM IGF-1, read-out: MAPK42, IC50 for down regulation of the stimulation to the basal level
Protocol: (§1) The tyrosine phosphorylation of IRS signaling (the 180 kDa band on a tyrosine phosphor Western blot) as well as activation of effectors MAPK 44 and 42 and PKB were analyzed by using antibodies specific for their active forms using methods substantially similar to those described in Example 14 of the '246 PCT application.
(§2) The effect of select peptides on downstream signaling (MAPK44, MAPK42, PKB/Akt, IRS-1, and IGF-1R) was also measured by studying the signaling in L6 cells predominantly expressing IGF-1R and very limited insulin receptors. […] The antagonistic effect of the peptides can be seen to affect all the downstream signaling from the IGF-1R.

IRS-1 = assay: downstream signaling: IRS-1 tyrosine phosphorylation; type: cell-based; settings: L6 cells; 3 nM IGF-1; read-out: IRS-1, IC50 for down regulation of the stimulation to the basal level
Protocol: as §1, §2

[3] = biological target: T2, IGF-1R on L6 (with mainly symmetric IGF-1R) (Rattus norvegicus, UniProt P24062); assay: displacement of IGF-1 binding on L6 cells
T2 construct: L6 cells predominantly expressing IGF-1R and very limited insulin receptors; endogenous in cells; host or cells: L6 cells
T2 sequence (P24062 31-737 limits assumed): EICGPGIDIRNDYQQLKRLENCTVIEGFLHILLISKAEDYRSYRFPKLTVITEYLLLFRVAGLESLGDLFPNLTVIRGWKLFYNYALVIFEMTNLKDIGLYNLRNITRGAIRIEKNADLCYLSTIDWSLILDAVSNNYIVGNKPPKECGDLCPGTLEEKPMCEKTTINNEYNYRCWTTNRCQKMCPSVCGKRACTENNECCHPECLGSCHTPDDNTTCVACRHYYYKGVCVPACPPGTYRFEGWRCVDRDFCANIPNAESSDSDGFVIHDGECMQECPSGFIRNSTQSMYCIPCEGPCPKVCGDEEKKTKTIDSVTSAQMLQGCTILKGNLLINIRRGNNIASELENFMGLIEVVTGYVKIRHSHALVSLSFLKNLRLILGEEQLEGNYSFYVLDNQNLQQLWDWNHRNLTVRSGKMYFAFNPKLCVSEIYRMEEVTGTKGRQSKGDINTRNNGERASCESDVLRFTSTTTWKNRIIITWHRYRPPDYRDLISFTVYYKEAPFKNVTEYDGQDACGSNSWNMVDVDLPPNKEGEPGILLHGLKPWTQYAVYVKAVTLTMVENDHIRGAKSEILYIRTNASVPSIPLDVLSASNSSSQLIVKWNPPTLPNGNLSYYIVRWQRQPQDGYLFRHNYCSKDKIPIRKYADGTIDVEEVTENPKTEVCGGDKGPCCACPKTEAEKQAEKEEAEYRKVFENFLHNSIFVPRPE
T2 sequence (P24062 742-1370 limits assumed): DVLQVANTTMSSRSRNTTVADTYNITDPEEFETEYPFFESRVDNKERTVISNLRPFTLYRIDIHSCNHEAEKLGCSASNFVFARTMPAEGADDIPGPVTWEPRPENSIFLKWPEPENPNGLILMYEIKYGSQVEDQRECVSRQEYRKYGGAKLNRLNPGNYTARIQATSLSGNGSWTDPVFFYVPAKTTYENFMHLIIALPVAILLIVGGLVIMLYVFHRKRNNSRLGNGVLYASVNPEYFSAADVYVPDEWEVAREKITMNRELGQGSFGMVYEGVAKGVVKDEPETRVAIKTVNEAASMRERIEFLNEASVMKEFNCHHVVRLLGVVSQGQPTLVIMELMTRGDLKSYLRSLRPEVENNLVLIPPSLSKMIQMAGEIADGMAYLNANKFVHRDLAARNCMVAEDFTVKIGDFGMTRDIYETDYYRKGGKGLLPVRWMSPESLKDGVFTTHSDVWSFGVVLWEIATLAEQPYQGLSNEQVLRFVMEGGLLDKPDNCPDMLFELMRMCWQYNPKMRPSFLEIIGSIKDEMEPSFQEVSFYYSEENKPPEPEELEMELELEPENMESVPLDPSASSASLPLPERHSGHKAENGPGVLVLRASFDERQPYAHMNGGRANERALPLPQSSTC

Row | Molecule | Kd (HIGF-1R) | HIR affinity, value in brackets [1] | IC50 in SW480 (M) in presence of IGF-1/alone: in presence of IGF-1 (SW480 cells; first value of the cell: concentration needed to blunt the effect of 10 nM IGF-1, cells in words only = effect as reported, 48 hours) | inhibition of basal growth of SW480, doses (SW480 cells; without IGF-1) | effect on glucose uptake induced by insulin or IGF-1 ([2]; SGBS adipocytes, FIGS. 1A and 1B) | doses not affecting glucose uptake in response to insulin/IGF-1 ([2]; SGBS cells) | inhibition of IGF-1 induced versus insulin induced phosphorylation (insulin receptor/IGF-1R) | IC50 (MAPK42) | IC50 (IRS-1) | concentration displacing IGF-1 binding to IGF-1R on L6 [3]
1 | CC(C)C[C@H](NC(=O)[C@H](CCC(=O)O)NC(=O)[C@H](CCC(=O)O)NC(=O)[C@H](CS)NC(=O)[C@H](CO)NC(=O)[C@H](Cc1ccc(O)cc1)NC(=O)[C@H](Cc1ccccc1)NC(=O)[C@@H](N)CO)C(=O)N[C@H](C(=O)N[C@@H](CCC(N)=O)C(=O)NCC(=O)N1CCC[C@H]1C(=O)N[C@@H](C)C(=O)N[C@@H](CCC(=O)O)C(=O)N[C@@H](CCCCN)C(=O)N[C@@H](CO)C(=O)N[C@@H](CCCCN)C(=O)NCC(=O)N[C@@H](CCC(N)=O)C(=O)N[C@@H](Cc1c[nH]c2ccccc12)C(=O)N[C@@H](CCC(=O)O)C(=O)NCC(=O)N[C@@H](CS)C(=O)N[C@@H](CCCCN)C(=O)N[C@@H](CCCCN)C(=O)O)C(C)C [Peptide F370] (H-SFYSCEELVQGPAEKSKGQWEGCKK-OH) | 23000 nM |  |  |  |  |  |  |  |  | 
2 | QFYGCLLDLSLGVPSFGWRRRCITA [Peptide F138] |  | (0.013%) | Antagonistic | > 100 nM | neither peptide F138 nor peptide F293 has any substantial effect on glucose uptake induced by insulin or IGF-1 | < 5 µM | Some selectivity for inhibiting IGF-1 induced tyrosine phosphorylation as compared to insulin induced phosphorylation | 300 nM | 300 nM | 100 nM
